US9988268B2, “Preparation of 2,6- and 2,7-disubstituted anthraquinone derivatives” (BASF SE, priority 2014, dated 2018)
Converted amounts (≈) assume the structure as drawn. Read-outs that look alike come from different tables or passages of the source.

Experiment: Determination of the solubility of anthraquinone derivatives in xylene/diisobutylcarbinol
Type: physicochemical
Conditions: for solubility: mixture of xylene (50 volume-%) and diisobutylcarbinol (50 volume-%), 22° C.; for Solubility (in words): xylene/diisobutylcarbinol solvent system, comparison of anthraquinone derivatives
Protocol: 0.06 ml of a mixture of xylene (50 volume-%) and diisobutylcarbinol (50 volume-%) were added to 1 g of the respective anthraquinone derivative at 22° C. every 60 seconds until the anthraquinone derivative was dissolved completely.

Row | solubility (xylene/diisobutylcarbinol mixture (50:50 by volume), organic solvent or mixture, thermodynamic from solid, read-out: Solubility) [mM] | Solubility (in words) | solubility | SMILES
1 | 270 (≈ 63.8 mg/mL) | poorly soluble |  | CCc1ccc2c(c1)C(=O)c1ccccc1C2=O [2-ethylanthraquinone]
2 |  | insoluble | insoluble | Cc1cc2c(cc1C)C(=O)c1cc(C)c(C)cc1C2=O [Comparative Example 6, 2,3,6,7-tetramethylanthracene-9,10-dione]
